Assay: Host toxicity monitoring in the CWR22Rv1 xenograft study (body weight, health status)
Format: in vivo, male NOD SCID mice
Procedure: Following the in vitro studies and determination of the PK parameters, we then investigated the relative efficacy. Gal and the NGGAs in vivo using difficult-to-treat castration-resistant CWR22Rv1 xenografts. Given the enhanced IP and PO PK parameters of VNPP414 and VNPP433-3β over Gal, we decided to use lower doses of the new analogs compared to the previous Gal doses (200 mg/kg, IP/PO). Gal (200 mg/kg) served as positive control, while ENZ (25 mg/kg) administered PO was used as negative control. Male NOD SCID mice bearing CWR22Rv1 tumors were treated with vehicle, ENZ, Gal, VNPP414, and VNPP433-3β for 16 days as described in the Methods and Materials Section. […] In contrast, Gal and the NGGAs caused statistically significant tumor growth inhibition (TGI). […] It is notable that VNPP433-3β (at 7.5- and 15-fold lower molar doses) and VNPP414 (at 4-fold lower molar dose) are more efficacious than Gal. In general, no host toxicities were observed, as monitored by changes in animal body weight (Figure 7C). […]

## C[C@]12CC[C@H](n3ccnc3)CC1=CCC1C2CC[C@]2(C)C(n3cnc4ccccc43)=CCC12 (stereo partly drawn) [VNPP433-3β]
30 mg/kg PO once daily group, 5 mice
  mortality: one mouse died on day 16
CWR22Rv1 tumor-bearing mice, PO, 16 days
  host toxicity, monitored by changes in animal body weight: no apparent host toxicity

Source: publication PMC6895912 (Cancers, 2019)
